Experimental data from patent US20070027165A1, “Fungicidal mixtures for controlling rice pathogens” (BASF Aktiengesellschaft, priority 2003, published 2007).

Test system: Cochliobolus miyabeanus
Assay: activity against brown spot of rice caused by Cochliobolus miyabeanus, protective application
Assay type: in vivo
Details: individual active compound, rice seedlings, assessed 6 days after inoculation
Protocol: The active compounds, separately or jointly, were prepared as a stock solution with 0.25% by weight of active compound in acetone or DMSO. 1% by weight of the emulsifier Uniperol® EL (wetting agent having emulsifying and dispersing action based on ethoxylated alkylphenols) was added to this solution, and the solution was diluted with water to the desired concentration.
Use example—activity against brown spot of rice caused by Cochliobolus miyabeanus, protective application
Leaves of potted rice seedlings of the cultivar “Tai-Nong 67” were sprayed to runoff point with an aqueous suspension of the concentration of active compound stated below. The next day, the plants were inoculated with an aqueous spore suspension of Cochliobolus miyabeanus. The test plants were then placed in climatized chambers at 22-24° C. and 95-99 % relative atmospheric humidity for six days. The extent of the development of the infection on the leaves was then determined visually.
Evaluation was carried out by determining the percentage of infected plants. These percentages were converted into efficacies.
The efficacy (E) is calculated as follows using Abbot's formula: E=(1−α/β)·100 α corresponds to the fungicidal infection of the treated plants in % and β corresponds to the fungicidal infection of the untreated (control) plants in %
An efficacy of 0 means that the infection level of the treated plants corresponds to that of the untreated control plants; an efficacy of 100 means that the treated plants are not infected.
The expected efficacies of mixtures of active compounds are determined using Colby's formula (R. S. Colby, Weeds, 15, 20-22, 1967) and compared with the observed efficacies.
Colby's formula: E=x+y−x·y/100 • E expected efficacy, expressed in % of the untreated control, when using the mixture of the active compounds A and B at the concentrations a and b • x efficacy, expressed in % of the untreated control, when using the active compound A at the concentration a • y efficacy, expressed in % of the untreated control, when using the active compound B at the concentration b

Structure (SMILES) | Efficacy in % of the untreated control (1 ppm in the spray liquor) [%] | Efficacy in % of the untreated control (4 ppm in the spray liquor) [%]
CC1CCN(c2c(-c3c(F)cc(F)cc3F)c(Cl)nc3ncnn23)CC1 [I, 5-chloro-7-(4-methylpiperidin-1-yl)-6-(2,4,6-trifluorophenyl)-[1,2,4]triazolo[1,5-a]pyrimidine] | 8 | –
C[C@H](Nc1c(-c2c(F)cc(F)cc2F)c(Cl)nc2ncnn12)C(F)(F)F [comparative compound B] | 20 | –
N#Cc1c[nH]cc1-c1cccc(Cl)c1Cl [II (fenpiclonil), 4-(2,3-dichlorophenyl)-1 H-pyrrole-3-carbonitrile] | 0 | 0
CC1CCN(c2c(-c3c(F)cccc3Cl)c(Cl)nc3ncnn23)CC1 [comparative compound A] | 20 | –
